# From patent US12692237B2, “Continuous method for preparing tricyanoimidazole” (UCHICAGO ARGONNE, LLC, priority 2022, dated 2026)
# Experiments:
# [1] = Solvent screening: solubility of DCI-NH2 slurried in acetonitrile plus various solvents; format: physicochemical; conditions: for Solubility, +100 uL solvent / Solubility, +200 uL water: +100 uL solvent
# Procedure: Samples of DCI-NH2 (40 mg) were slurried in acetonitrile (0.25 ml) plus various solvents (0.05 ml).
# [2] = as above; format: physicochemical; conditions: 40 mg in MeCN:water = 0.5:0.2 mL
# [3] = 40 mg in acetonitrile 0.25 ml + NMP 0.05 ml
# [4] = 40 mg in acetonitrile 0.25 ml + Nitromethane 0.05 ml
# [5] = 40 mg in acetonitrile 0.25 ml + Propylene carbonate 0.05 ml
# [6] = 40 mg in acetonitrile 0.25 ml + Sulfolane 0.05 ml
structure (smiles),measurement,setting,value
"N#Cc1nc(N)[nH]c1C#N [DCI-NH2, 2-amino-1H-imidazole-4,5-dicarbonitrile]",Solubility,[1]; 40 mg in acetonitrile 0.25 ml + Diglyme 0.05 ml,soluble
same,Solubility,[1]; 40 mg in acetonitrile 0.25 ml + Dmso 0.05 ml,soluble
same,Solubility,[1]; [3],partial
same,"Solubility, +100 uL solvent",[1]; [3],soluble
same,Solubility,[1]; [4],No
same,"Solubility, +100 uL solvent",[1]; [4],No
same,"Solubility, +200 uL water",[1]; [4],No
same,Solubility,[1]; [5],No
same,"Solubility, +100 uL solvent",[1]; [5],No
same,"Solubility, +200 uL water",[1]; [5],soluble
same,Solubility,[1]; [6],No
same,"Solubility, +100 uL solvent",[1]; [6],No
same,"Solubility, +200 uL water",[1]; [6],soluble
same,Solubility,[2],soluble
